According to patent publication US20080233051A1, “Nanoparticles for two-photon activated photodynamic therapy and imaging” (priority 2006, published 2008):

Assays:
[1] = Fluorescence quantum yield of BDSA in solution and as nanoaggregates; format: physicochemical
Source text: A representative transmission electron microscopic (TEM) image of the obtained nanoaggregates with a diameter of 44±7 nm is shown in FIG. 1a. […] The fluorescence quantum yield (Φf) of nanoaggregated state varies (0.1˜0.3), depending on the preparation conditions, including solvent, solvent/water ratio, and overall dye concentration, etc. […] No notable sign of H- or J-aggregation was observed, implying that molecular stacking is neither too close nor well ordered within the nanoaggregated structure. The fluorescence quenching in solution can be understood as dominant non-radiative decay, enhanced by free intramolecular torsional motion in solution, as in the case of flexible molecules showing viscosity-dependent fluorescence. Moreover, the weak, broad, and red-shifted emission of the solution, compared to that of the aggregate, implies the existence of large-amplitude relaxation in the excited state, such as twisted intramolecular charge transfer (TICT) which often acts as an intramolecular fluorescence quencher due to the nπ* characteristics. This is supported by our observation of intense and blue-shifted monomer fluorescence from a dilute solid solution of BDSA in PMMA film, where isolated molecules are frozen in the distorted form by rigid matrix, to prevent fluorescence quenching motion. The structural effect on aggregate formation and fluorescence was studied with a specific comparison between BDSA and the 1,4-phenylene analogue, BDSB, by varying the solvent/water ratio.

[2] = One- and two-photon excited fluorescence of HPPH/BDSA nanoparticles (intraparticle FRET); format: physicochemical; details: free HPPH, self-aggregation
Experimental: To produce fluorescent domains of BDSA aggregates in the particle matrix, the following amounts were loaded to induce phase separation: 10, 20, and 30 wt % with respect to the total VTES amount. Fluorescence lifetime measurements were performed using Time correlated Single Photon Counting (TCSPC) technique. For this measurements, Ti:Sapphire laser providing 800 nm femtosecond pulses was used as excitation source and a SPC-830 TCSPC module (Becker & Hickl) with an H7422 (Hamamatsu) detector with a response time in the range of 250 ps was used for the measurements. […] For an estimation of the instrument response function (IRF), a dye with a known fluorescence lifetime (from Streak camera measurements), less than 50 ps was used. […] For quantitative comparison, the concentrations of the nanoparticle water dispersions were kept the same for all the sample sets. The dispersions of all examined HPPH-loaded nanoparticles had the absorbance of 0.07 at 665 nm.
When excited at 425 nm, the obtained fluorescence spectrum of the coencapsulating nanoparticles is a composite of the emission contributions from the donor BDSA aggregates and the acceptor HPPH. Compared with the fluorescence intensities of the nanoparticles containing the corresponding amount of each dye, BDSA emission is quenched by 70% and HPPH emission is amplified ca. 5 times, indicating the occurrence of FRET. […]

Compound: CN(CCOC(=O)c1ccccc1)c1ccc(C=Cc2ccc(C=Cc3c4ccccc4c(C=Cc4ccc(C=Cc5ccc(N(C)CCOC(=O)c6ccccc6)cc5)cc4)c4ccccc34)cc2)cc1 [BDSA, 9,10-Bis(4′-{4″-[N-methyl-N-(2-benzoyloxyethyl)amino]styryl}styryl)anthracene]
- Fluorescence quantum yield (Φf) ([1]; NMP solution): ~0.009
- Fluorescence intensification by aggregation ([1]; aggregate versus NMP solution): more than 30 times
- Fluorescence change on aggregate formation ([1]; varying solvent/water ratio, THF/H2O, 5 μM (FIG. 2)): Enhanced fluorescence is seen

Compound: CCCCCCOC(C)C1=C(C)c2cc3nc(c4c5[nH]c(cc6[nH]c(cc1n2)c(C)c6CC)c(C)c5C(=O)C4)C(CCC(=O)O)C3C (stereo not shown) [HPPH, 2-devinyl-2-(1-hexyloxyethyl)pyropheophorbide]
- Fluorescence in water dispersions [2]: completely quenched
